SMILES strings stand for the structures. Read-outs that look alike come from different tables or passages of the source.

Data set [1] has as its target T1, GCD (recombinant gelatinase A catalytic domain) (Homo sapiens, UniProt P08253).
T1 construct: propeptide, C-terminal domain and fibronectin-like insert removed; E. coli host likely
T1 sequence (P08253 110-660): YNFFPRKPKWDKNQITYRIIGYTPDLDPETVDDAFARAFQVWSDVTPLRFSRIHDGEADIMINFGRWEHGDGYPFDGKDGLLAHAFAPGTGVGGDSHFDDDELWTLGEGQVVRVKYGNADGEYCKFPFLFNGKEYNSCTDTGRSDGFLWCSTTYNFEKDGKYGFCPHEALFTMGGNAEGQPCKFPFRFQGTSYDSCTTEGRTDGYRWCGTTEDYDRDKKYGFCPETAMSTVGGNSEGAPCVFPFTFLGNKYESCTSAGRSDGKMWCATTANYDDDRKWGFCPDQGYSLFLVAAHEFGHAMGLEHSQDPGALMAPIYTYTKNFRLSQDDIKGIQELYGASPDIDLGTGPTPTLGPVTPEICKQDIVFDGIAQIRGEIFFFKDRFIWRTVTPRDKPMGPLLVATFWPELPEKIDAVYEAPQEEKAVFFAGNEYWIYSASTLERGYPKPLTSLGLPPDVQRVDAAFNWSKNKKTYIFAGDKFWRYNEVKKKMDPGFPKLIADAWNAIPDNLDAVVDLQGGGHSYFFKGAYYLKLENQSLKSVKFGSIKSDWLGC
The data set can be described thus: Inhibition of GCD (recombinant gelatinase A catalytic domain), thiopeptolide substrate. It is filed as biochemical. To be noted: thiopeptolide substrate Ac-Pro-Leu-Gly-thioester-Leu-Leu-Gly-OEt. The text has this: Matrix metalloproteinases share high sequence homology and the catalytic domains of each of the MMPs can be identified by sequence alignment. The gene for the catalytic domain of stromelysin-1, SCD, was constructed by removing the propeptide and C-terminal domain (Ye Q.-Z., Johnson L.L, Hupe D.J., and Baragi V., "Purification and Characterization of the Human Stromelysin Catalytic Domain Expressed in Escherichia coli", Biochemistry,1992;31:11231-11235). The gelatinase A catalytic domain, GCD, was similarly constructed with the additional removal of the fibronectin-like insert which interrupts the catalytic domain (Ye Q.-Z., Johnson L.L, Yu A.E., and Hupe D., "Reconstructed 19 kDa Catalytic Domain of Gelatinase A is an Active Proteinase", Biochemistry, 1995;34:4702-4708). Both truncated proteins cleave synthetic peptide substrates and the natural substrates proteoglycan and gelatin in a manner similar to the full-length enzymes and can be used to identify matrix metalloproteinase inhibitors.
Experiments were carried out with both the full-length enzymes and the catalytic domains. […] IC50 values were determined using a thiopeptolide substrate, Ac-Pro-Leu-Gly-thioester-Leu-Leu-Gly-OEt (Ye Q.-Z., Johnson L.L., Hupe D.J., and Baragi V., "Purification and Characterization of the Human Stromelysin Catalytic Domain Expressed in Escherichia coli", Biochemistry,1992;31:11231-11235). […]

The target in data set [2] is T2, collagenase (full-length native enzyme) (Homo sapiens, UniProt P03956).
T2 construct: collagenase (full-length native enzyme)
T2 sequence (P03956 100-469): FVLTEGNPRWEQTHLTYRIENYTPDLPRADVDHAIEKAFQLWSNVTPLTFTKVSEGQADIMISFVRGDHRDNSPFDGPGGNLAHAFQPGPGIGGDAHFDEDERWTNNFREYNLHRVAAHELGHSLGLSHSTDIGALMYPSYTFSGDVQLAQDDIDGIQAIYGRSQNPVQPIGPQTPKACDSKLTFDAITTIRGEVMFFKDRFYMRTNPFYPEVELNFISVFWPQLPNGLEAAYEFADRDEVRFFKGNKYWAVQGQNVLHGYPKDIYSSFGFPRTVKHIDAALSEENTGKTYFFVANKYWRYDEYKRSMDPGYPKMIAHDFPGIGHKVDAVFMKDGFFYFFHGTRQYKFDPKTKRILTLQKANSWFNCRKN
The data set can be described thus: Inhibition of collagenase (full-length native enzyme), thiopeptolide substrate. It is filed as biochemical. The method, then: Experiments were carried out with both the full-length enzymes and the catalytic domains. […] IC50 values were determined using a thiopeptolide substrate, Ac-Pro-Leu-Gly-thioester-Leu-Leu-Gly-OEt (Ye Q.-Z., Johnson L.L., Hupe D.J., and Baragi V., "Purification and Characterization of the Human Stromelysin Catalytic Domain Expressed in Escherichia coli", Biochemistry,1992;31:11231-11235). […] IC50 values for gelatinase B, and collagenase, were >100 μM.

In data set [3] the test system is EAE Rats. In words: EAE Lewis rat acute model, Protocol 1 (daily oral dosing Day 0-14). The class given is in vivo. The method, then:
(§1) Female Lewis rats were purchased from Harlan Sprague-Dawley (Indianapolis, IN) and were used at 8 to 10 weeks of age. Active EAE was induced by injection of 0.05 mL emulsion of myelin basic protein (MBP) with complete Freund's adjuvant (CFA), containing 25 μg guinea pig MBP and 100 μg Mycobacterium butyricum (Difco Laboratories, Detroit, MI) into one hind footpad. Immunized rats were observed daily for clinical signs of EAE and scored as follows: 0, no symptoms; 1, loss of tail tonicity; 2, paresis; 3, hind limb paralysis, often accompanied by incontinence; and 4, death. Formalin-fixed brain slice sections were stained with hematoxylin-eosin and evaluated microscopically for perivascular and parenchymal infiltration. Compound was administered by gavage as a solution in sterile saline in a volume of 500 μL. […] Several different protocols were used to define the efficacy and timing requirements for potency.
Protocol 1: Compound was administered daily at 50 mg/kg beginning on Day 0 and continuing through Day 14, with MBP in CFA administered on Day 0 also. […] N=5 for all groups.

In data set [4] the test system is EAE Rats. In words: EAE Lewis rat acute model, Protocol 2 (alternate-day oral dosing Day 0-14). The class given is in vivo. The following applies: for Effect on EAE Rats (≥Paresis/Total): CFA + MBP control 5/7. The method, then: as §1
Controls run in parallel included CFA only and MBP in CFA. N=4 for treatment groups. N=8 for controls.

Data set [5] concerns leukocyte migration across the blood-brain barrier. In words: Histology of brain slices from Protocol 1 EAE animals. The class given is in vivo, Lewis rat. The following applies: 50 mg/kg daily dosing schedule. How it is done: The activity of Example 2 in suppressing the inflammatory disease associated with EAE was tested using the Lewis rat acute model. Female Lewis rats were purchased from Harlan Sprague-Dawley (Indianapolis, IN) and were used at 8 to 10 weeks of age. Active EAE was induced by injection of 0.05 mL emulsion of myelin basic protein (MBP) with complete Freund's adjuvant (CFA), containing 25 μg guinea pig MBP and 100 μg Mycobacterium butyricum (Difco Laboratories, Detroit, MI) into one hind footpad. Immunized rats were observed daily for clinical signs of EAE and scored as follows: 0, no symptoms; 1, loss of tail tonicity; 2, paresis; 3, hind limb paralysis, often accompanied by incontinence; and 4, death. Formalin-fixed brain slice sections were stained with hematoxylin-eosin and evaluated microscopically for perivascular and parenchymal infiltration. Compound was administered by gavage as a solution in sterile saline in a volume of 500 μL. The dose of 50 mg/kg typically required 7.5 mg of compound per rat. Several different protocols were used to define the efficacy and timing requirements for potency.

Data set [6] relates to Mycobacterium footpad edema. The data set can be described thus: Mycobacterium footpad edema assay (MFE). It is filed as in vivo, Wistar rats. The following applies: all values of Table IV (2, 10, 50 mg/kg). How it is done: The activity of Example 2 as a general inhibitor of inflammation was tested using the Mycobacterium footpad edema assay (MFE) in Wistar rats. Compound was administered daily by gavage at 2 mg/kg, 10 mg/kg, or 50 mg/kg.
Male outbred Wistar rats (110-125 g, Charles River Labs, Portage, Mich.) were used in this study. Rats were housed for a minimum of 1 week before use. Food and water were supplied ad libitum. Foot pad edema was induced following the method described by Martel R.R. and Klicius J., "Comparisons in rats of the antiinflammatory and gastric irritant effects of etodolac with several clinically effective antiinflammatory drugs", Agents and Actions, 1982;12:295. […] Swelling was assessed on the third day by subtracting the initial volume (determined immediately following the Mycobacterium injection) from the final volume of the treated paw. Paw volume was determined by mercury plethysmography. The percent inhibition of edema achieved in each compound-treated group was determined by comparison with swelling in the vehicle-treated group and the ID50 values were determined by regression analysis. Statistical significance between experimental groups was evaluated using a Student's t-test.

Data set [7] in a line: Plasma concentrations after oral dosing. It is filed as in vivo, Wistar rats. To be noted: for Cmax: read-out: plasma concentration (Cmax). The method, then: The activity of Example 2 as a general inhibitor of inflammation was tested using the Mycobacterium footpad edema assay (MFE) in Wistar rats. Compound was administered daily by gavage at 2 mg/kg, 10 mg/kg, or 50 mg/kg. […] The bioavailability of this compound is therefore well in excess of the effective range of gelatinase A inhibition determined in the in vitro assays.

The test system of data set [8] is experimental allergic encephalomyelitis (EAE). To be noted: Gijbels et al.; dose dependent; cited from earlier work.

In the case of `O=C(O)CCC(=NO)c1ccc2oc3ccccc3c2c1` [Example 2, 4-Dibenzofuran-2-yl-4-hydroximino-butyric acid], the IC50 in data set [1] is 40 nM; in data set [2], greater than 100000 nM. Moreover, in data set [3] (50 mg/kg daily, Day 0 through Day 14), the “average scores for the treated group” value was “substantially reduced”. In addition, the “percentage of animals responding (total inhibition or reduction of symptoms)” value in data set [3] (50 mg/kg daily, Day 0 through Day 14, N=5) was found to be 100%. In addition, the “Effect on EAE Rats (≥Paresis/Total)” value in data set [3] (CFA + Example 2 (no MBP), 50 mg/kg daily oral from Day 0) was 0/5; in data set [3] (CFA + MBP + Example 2, 50 mg/kg daily oral from Day 0, CFA + MBP control 5/5) it was 1/5; in data set [4] (CFA + MBP + Example 2, 10 mg/kg alternate days) it was 0/4; in data set [4] (CFA + MBP + Example 2, 50 mg/kg alternate days) it was 0/4. Besides, the “significance (p) of decrease in disease severity” value in data set [4] (Day 15, 10 or 50 mg/kg alternate days) is recorded as no more than 0.01. Further, in data set [5], the CNS inflammation result was “little CNS inflammation”. For the same compound, in data set [5], the cuff formation result is “no cuff formation”. Besides, the “leukocyte migration across the blood-brain barrier” value in data set [5] was “completely prevented”. Also, the “statistical significance of inhibition of the inflammatory response” value in data set [6] was “statistically significant”. The “Cmax and AUC(0-4) dose dependence” value in data set [7] (2, 10, 50 mg/kg) is reported as “increase proportionately with dose”. Also, the Cmax in data set [7] (rat, plasma, po, 2-mg/kg dose) turned out to be 4.62 µM; in data set [7] (rat, plasma, po, 10-mg/kg dose) it was 38.8 µM; in data set [7] (rat, plasma, po, 50-mg/kg dose), 163 µM. For the same compound, the Tmax in data set [7] (rat, plasma, po, post-treatment, read-out: time of peak plasma concentration) was 1 h. For the same compound, the plasma concentration decline result in data set [7] (through the subsequent 4 hours after peak) is given as “declined mono-exponentially”.

Take `CNC(=O)[C@H](Cc1c[nH]c2ccccc12)NC(=O)[C@@H](CC(=O)NO)CC(C)C` [GM6001]: the “effect on development or clinical expression of EAE” value in data set [8] was “suppressed the development or reversed the clinical expression of experimental allergic encephalomyelitis (EAE) in a dose dependent manner”.

What is called IC50 is the midpoint of a concentration-inhibition curve.

The record behind these values is US5627206A, “Tricyclic inhibitor of matrix metalloproteinases” (Warner-Lambert Company, priority 1995, dated 1997).
